Source: patent US11607396B2, “Bicyclic amide compounds and methods of use thereof” (Genentech, Inc., priority 2016, dated 2023)

Molecular target: human RIP1 kinase domain (2-375) (Homo sapiens (Human), UniProt Q13546)
Assay: RIP1 kinase inhibition biochemical assay (Transcreener ADP, fluorescence polarization)
Conditions: apparent Ki (Kiapp, Morrison tight-binding fit); 50 nM enzyme, 50 uM ATP, 2 hours incubation
Experimental: RIP1 Kinase Inhibition Assays (Biochemical Assay):
The compounds of the present invention were tested for their capacity to inhibit RIP IK activity as described below.
Enzyme assay: The ability of the receptor interacting protein kinase (RIPK1) to catalyze the hydrolysis of adenosine-5′-triphosphate (ATP) is monitored using the Transcreener ADP (adenosine-5′-diphosphate) assay (BellBrook Labs). Purified human RIP1 kinase domain (2-375) (50 nM) derived from a baculovirus-infected insect cell expression system is incubated with test compounds for 2 hours in 50 mM Hepes buffer (pH 7.5) containing 30 mM MgCl2, 1 mM dithiothreitol, 50 uM ATP, 0.002% Brij-35, and 0.5% dimethyl sulfoxide (DMSO). Reactions are quenched by the addition of IX Bell Brooks Stop buffer B (20 mM Hepes (ph7.5), 40 mM ethylenediaminetetraacetic acid and 0.02% Brij-35) containing an additional 12 mM EDTA and 55 ug/mL ADP2 antibody and 4 nM ADP-AlexaFluor® 633 tracer. The tracer bound to the antibody is displaced by the ADP generated during the RIP IK reaction, which causes a decrease in fluorescence polarization that is measured by laser excitation at 633 nm with a FP microplate reader M1000. Fractional activity was plotted against test article concentration. […]

human RIP1 kinase domain (2-375), sequence (Q13546 2-375): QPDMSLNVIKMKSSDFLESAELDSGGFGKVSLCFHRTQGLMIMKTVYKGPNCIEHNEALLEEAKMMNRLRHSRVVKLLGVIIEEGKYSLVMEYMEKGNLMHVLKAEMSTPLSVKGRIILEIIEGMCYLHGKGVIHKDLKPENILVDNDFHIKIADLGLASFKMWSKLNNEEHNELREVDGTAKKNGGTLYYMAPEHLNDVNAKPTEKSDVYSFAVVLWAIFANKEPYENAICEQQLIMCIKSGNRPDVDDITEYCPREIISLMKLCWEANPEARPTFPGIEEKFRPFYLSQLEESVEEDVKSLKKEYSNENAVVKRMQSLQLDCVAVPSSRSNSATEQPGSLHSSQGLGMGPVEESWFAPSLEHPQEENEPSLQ

Ki [µM] | SMILES
0.233 | O=C(c1nc2n(n1)CCC2c1ccccc1F)N1CC(F)(F)C1 (racemic) [Example 14, (3,3-difluoroazetidin-1-yl)-[7-(2-fluorophenyl)-6,7-dihydro-5H-pyrrolo[1,2-b][1,2,4]triazol-2-yl]methanone]
0.004 | O=C(c1nc2n(n1)[C@H](c1ccccc1)C[C@@H]2F)N1CC(F)(F)C1 (single isomer, unassigned) [Example 36]
